{
  "source": "paper PMC5587642",
  "about": "“A Novel Benzocoumarin-Stilbene Hybrid as a DNA ligase I inhibitor with in vitro and in vivo anti-tumor activity in breast cancer models” (Scientific Reports, 2017)",
  "key": {"[1]": {"system": "MDA-MB-231 cells", "test": "Comet assay", "type": "cell-based, human", "settings": "12 µM, 48 h", "description": "Comet assay was performed as described by Olive et al ^3 with slight modifications. MDA-MB-231 cells treated with compound 19 at 12µM for 48h. The harvested cells were mixed with low melting point agarose and pipet the 200μl of cell suspension onto agarose coated surface of frosted slides. The samples were lysed for overnight at 4 °C after the lysis, electrophoresis performed at 40mA for 30mins. The slides neutralized by water, stained with propidium iodide and images were captured by fluorescence microscope. As shown in Supplementary Fig. 71 the treated samples (B) have increased length of DNA tail as compared to control sample (A). This increase in the tail length of DNA occurs due to DNA damage which is induced by compound 19 in MDA-MB-231 cells."}, "[2]": {"test": "Metabolic stability in rat liver microsomes", "type": "in vitro ADME", "description": "Major drug clearance in the body occurs due to its metabolism in the liver. Metabolic stability in rat liver microsomes (RLM) was conducted in triplicate. Compound 19 (5 µM) was incubated in reaction milieu which contains RLM (0.5 mg/ml), MgCl2 (10 mM), NADPH (10 mM) in a 1.5 ml phosphate buffer solution (pH 7.4). Reaction was started by the addition of NADPH and kept in a shaking water bath at 37 °C. Organic content in reaction mixture was kept less than 1%. Time points at which samples were withdrawn were 0, 5, 15, 30, 45, 60 min. Testosterone was used as control to know the RLM enzyme activity. Control reaction without NADPH was performed to explore any chemical instability or non-cofactor dependent enzymatic degradation. At each time point 150 µL aliquots were withdrawn and added in 150 µL ACN, […] at 10,000 g for 5 minutes, 100 µL samples was pipetted out & analyzed in HPLC-PDA."}, "[3]": {"target": "T4 DNA ligase (Enterobacteria phage T4, UniProt P00970)", "sequence (P00970 whole entry)": "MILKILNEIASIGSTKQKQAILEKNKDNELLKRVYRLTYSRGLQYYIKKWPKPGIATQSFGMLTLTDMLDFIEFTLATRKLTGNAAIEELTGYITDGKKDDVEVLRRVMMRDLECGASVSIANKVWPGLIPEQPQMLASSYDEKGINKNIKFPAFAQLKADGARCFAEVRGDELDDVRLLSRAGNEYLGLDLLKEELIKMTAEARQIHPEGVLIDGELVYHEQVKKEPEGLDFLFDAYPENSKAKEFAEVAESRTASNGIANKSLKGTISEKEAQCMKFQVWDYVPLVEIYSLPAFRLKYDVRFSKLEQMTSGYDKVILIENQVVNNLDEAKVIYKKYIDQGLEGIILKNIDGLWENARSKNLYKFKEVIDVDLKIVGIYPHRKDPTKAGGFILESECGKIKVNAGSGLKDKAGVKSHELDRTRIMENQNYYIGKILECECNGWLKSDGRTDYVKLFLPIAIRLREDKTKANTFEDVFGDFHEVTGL", "test": "In-vitro DNA ligation assay", "type": "biochemical", "settings": "5, 10 and 20 µM", "description": "(§1) DNA ligation assay was performed as described previously. […] After the incubation, gel images were captured and analyzed by Image Quant LAS4010 software."}, "[4]": {"target": "T1, hLigI (Homo sapiens, UniProt P18858)", "T1 construct": "made in house", "T1 sequence (P18858 whole entry)": "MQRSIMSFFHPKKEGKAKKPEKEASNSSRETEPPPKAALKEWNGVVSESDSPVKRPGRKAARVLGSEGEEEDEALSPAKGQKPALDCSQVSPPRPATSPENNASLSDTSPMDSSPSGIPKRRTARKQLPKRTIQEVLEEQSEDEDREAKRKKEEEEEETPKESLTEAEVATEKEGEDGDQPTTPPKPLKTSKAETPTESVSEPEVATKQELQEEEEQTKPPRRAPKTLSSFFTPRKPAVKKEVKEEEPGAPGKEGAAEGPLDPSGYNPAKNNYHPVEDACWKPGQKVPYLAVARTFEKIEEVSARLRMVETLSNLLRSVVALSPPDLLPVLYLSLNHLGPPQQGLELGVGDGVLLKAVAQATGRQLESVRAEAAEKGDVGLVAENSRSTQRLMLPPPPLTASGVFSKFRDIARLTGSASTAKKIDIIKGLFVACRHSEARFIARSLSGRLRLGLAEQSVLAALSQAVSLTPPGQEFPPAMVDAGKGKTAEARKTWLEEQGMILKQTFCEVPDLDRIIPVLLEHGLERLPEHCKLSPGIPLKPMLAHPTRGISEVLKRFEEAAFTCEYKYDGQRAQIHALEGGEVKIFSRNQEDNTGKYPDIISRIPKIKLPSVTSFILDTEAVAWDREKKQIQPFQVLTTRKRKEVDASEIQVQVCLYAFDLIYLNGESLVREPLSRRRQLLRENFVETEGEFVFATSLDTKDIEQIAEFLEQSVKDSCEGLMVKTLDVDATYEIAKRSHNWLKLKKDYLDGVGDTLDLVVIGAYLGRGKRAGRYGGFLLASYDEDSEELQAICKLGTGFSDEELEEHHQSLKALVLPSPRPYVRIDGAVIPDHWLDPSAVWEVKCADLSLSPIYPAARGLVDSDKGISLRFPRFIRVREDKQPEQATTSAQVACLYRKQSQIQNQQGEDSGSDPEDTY", "test": "In-vitro DNA ligation assay", "type": "biochemical", "description": "as §1"}, "[5]": {"target": "T2, hLigIIIβ (Homo sapiens, UniProt P49916)", "T2 construct": "made in house; host or cells: E. coli Rosetta2 (DE3) pLacI", "T2 sequence (P49916 43-949 isoform P49916-2 limits assumed)": "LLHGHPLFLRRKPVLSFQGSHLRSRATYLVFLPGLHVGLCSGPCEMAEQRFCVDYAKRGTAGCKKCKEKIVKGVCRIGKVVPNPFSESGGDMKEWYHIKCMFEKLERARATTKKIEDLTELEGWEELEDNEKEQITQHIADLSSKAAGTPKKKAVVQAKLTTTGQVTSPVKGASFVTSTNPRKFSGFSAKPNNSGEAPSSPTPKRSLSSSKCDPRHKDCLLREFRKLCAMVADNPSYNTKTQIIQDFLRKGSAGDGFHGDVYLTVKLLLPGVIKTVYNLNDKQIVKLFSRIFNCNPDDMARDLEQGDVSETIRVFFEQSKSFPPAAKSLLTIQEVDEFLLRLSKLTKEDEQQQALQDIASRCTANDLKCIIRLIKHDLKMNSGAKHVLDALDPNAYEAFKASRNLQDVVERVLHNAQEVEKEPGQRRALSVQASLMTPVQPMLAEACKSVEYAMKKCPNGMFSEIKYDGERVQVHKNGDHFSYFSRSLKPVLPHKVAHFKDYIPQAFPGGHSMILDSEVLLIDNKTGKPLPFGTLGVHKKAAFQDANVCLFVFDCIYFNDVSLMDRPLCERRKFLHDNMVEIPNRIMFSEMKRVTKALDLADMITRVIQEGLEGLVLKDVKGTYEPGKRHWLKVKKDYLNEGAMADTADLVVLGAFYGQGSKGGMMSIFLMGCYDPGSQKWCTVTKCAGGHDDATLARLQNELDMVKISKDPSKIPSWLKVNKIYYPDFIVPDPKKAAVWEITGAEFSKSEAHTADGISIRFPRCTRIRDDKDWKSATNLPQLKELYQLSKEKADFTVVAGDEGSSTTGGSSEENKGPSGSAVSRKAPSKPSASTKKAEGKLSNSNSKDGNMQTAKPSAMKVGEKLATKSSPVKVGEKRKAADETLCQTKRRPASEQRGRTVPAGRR", "test": "In-vitro DNA ligation assay", "type": "biochemical", "settings": "5, 10 and 20 µM", "description": "as §1"}, "[6]": {"target": "T3, hLigIV/XRCC4 (Homo sapiens, UniProt P49917)", "T3 construct": "made in house; host or cells: E. coli Rosetta2 (DE3) pLacI", "T3 sequence (P49917 whole entry)": "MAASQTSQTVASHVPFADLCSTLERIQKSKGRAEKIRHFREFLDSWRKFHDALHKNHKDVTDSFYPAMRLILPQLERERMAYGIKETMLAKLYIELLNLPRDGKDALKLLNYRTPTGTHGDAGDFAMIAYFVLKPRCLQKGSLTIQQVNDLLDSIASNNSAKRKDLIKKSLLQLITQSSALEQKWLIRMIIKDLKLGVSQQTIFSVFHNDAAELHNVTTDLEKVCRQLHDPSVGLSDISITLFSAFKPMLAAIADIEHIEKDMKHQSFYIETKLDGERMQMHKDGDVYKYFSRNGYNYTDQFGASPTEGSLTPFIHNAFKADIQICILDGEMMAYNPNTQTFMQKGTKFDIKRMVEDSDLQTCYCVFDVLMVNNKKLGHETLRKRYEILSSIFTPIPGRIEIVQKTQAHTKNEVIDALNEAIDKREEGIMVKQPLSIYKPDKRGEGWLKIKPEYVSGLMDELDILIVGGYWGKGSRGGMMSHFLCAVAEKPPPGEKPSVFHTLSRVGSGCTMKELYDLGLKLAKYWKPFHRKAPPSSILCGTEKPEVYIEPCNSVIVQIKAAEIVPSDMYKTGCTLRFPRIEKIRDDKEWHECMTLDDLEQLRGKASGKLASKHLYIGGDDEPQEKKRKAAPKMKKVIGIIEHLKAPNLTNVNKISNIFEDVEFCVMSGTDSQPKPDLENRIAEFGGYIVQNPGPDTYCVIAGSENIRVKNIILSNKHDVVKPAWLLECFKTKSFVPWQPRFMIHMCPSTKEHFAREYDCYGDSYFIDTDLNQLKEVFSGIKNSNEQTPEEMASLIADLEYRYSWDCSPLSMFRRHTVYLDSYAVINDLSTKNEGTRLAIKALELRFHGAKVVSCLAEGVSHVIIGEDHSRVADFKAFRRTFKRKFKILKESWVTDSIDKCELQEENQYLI", "T3 sequence (Q13426 whole entry partner)": "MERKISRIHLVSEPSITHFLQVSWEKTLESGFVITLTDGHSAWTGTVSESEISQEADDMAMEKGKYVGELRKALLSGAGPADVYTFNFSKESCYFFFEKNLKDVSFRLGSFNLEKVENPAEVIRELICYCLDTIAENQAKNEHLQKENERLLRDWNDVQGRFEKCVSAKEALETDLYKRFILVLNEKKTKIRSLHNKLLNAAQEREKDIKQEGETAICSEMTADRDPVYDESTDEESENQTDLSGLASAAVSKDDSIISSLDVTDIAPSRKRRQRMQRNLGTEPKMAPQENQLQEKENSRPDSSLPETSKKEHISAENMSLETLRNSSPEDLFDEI", "test": "In-vitro DNA ligation assay", "type": "biochemical", "settings": "5, 10 and 20 µM", "description": "as §1"}, "[7]": {"target": "T4, flap cleavage activity (FEN1) in MDA-MB-231 cell lysate (Homo sapiens, UniProt P39748)", "T4 construct": "endogenous in cells; host or cells: MDA-MB-231", "T4 sequence (P39748 whole entry)": "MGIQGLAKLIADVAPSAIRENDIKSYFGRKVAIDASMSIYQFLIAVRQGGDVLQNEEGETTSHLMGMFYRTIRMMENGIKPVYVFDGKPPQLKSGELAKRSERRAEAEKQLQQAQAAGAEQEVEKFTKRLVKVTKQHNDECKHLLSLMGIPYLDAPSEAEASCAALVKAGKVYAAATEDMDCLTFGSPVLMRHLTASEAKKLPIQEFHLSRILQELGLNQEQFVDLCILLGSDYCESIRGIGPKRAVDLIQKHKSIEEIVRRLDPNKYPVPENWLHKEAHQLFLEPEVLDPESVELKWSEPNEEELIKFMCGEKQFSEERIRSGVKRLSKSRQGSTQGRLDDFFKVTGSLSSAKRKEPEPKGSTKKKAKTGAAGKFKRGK", "test": "Ex-vivo flap cleavage with lysate of treated cells", "type": "cell-based", "settings": "MDA-MB-231, treated 48 h", "description": "Cells (MDA-MB-231) were seeded in 6 well plates and treated either with vehicle control (DMSO) or with different concentrations (6 and 12 µM) of compound 19 for 48 h. After the treatment cell lysate was prepared and western blotting was performed as described previously. Briefly, the cells were lysed by very brief sonication. Sonicated samples were centrifuged and the supernatant was collected and used for ligation assay and western blotting.\nThe MDA-MB-231 and 4T1 cells were treated with different concentrations of compound 19 for 48h. Cell lysate were prepared as described previously ^6 for the ligation assay. Here we used same DNA substrate which was used in FEN1 flap cleavage assay so that we can check the activity of hLigI and FEN1 proteins in compound 19 treated samples. The reactions were performed as described previously ^6. In the Supplementary Fig. 74 cleaved product remain (25 mer) same. This cleaved product occurs after the cleavage of 25+6 mer oligo by FEN1 protein, since the cleaved product (25 mer) remains same in treated as well as in control samples we can conclude that the compound 19 unable to inhibit the FEN1 protein inside the cells. The cleaved product (25 mer) make a double strand nicked substrate for hLig I protein with 27 mer and 52 mer oligo used in the reaction. hLigI protein gives rise to ligated (52 mer oligo) product after the completion of reaction. […]"}, "[8]": {"system": "DNA ligase activity in 4T1 cell lysate", "test": "Ex-vivo ligation assay with lysate of treated cells", "type": "cell-based, mouse", "settings": "4T1, treated 48 h", "description": "The MDA-MB-231 and 4T1 cells were treated with different concentrations of compound 19 for 48h. Cell lysate were prepared as described previously ^6 for the ligation assay. Here we used same DNA substrate which was used in FEN1 flap cleavage assay so that we can check the activity of hLigI and FEN1 proteins in compound 19 treated samples. The reactions were performed as described previously ^6. In the Supplementary Fig. 74 cleaved product remain (25 mer) same. This cleaved product occurs after the cleavage of 25+6 mer oligo by FEN1 protein, since the cleaved product (25 mer) remains same in treated as well as in control samples we can conclude that the compound 19 unable to inhibit the FEN1 protein inside the cells. The cleaved product (25 mer) make a double strand nicked substrate for hLig I protein with 27 mer and 52 mer oligo used in the reaction. hLigI protein gives rise to ligated (52 mer oligo) product after the completion of reaction. In the treated samples, ligated product (52 mer) decreases as compared to untreated samples."}, "[9]": {"system": "plasmid DNA (pUC18)", "test": "DNaseI cleavage protection assay", "type": "binding", "settings": "up to 500 µM", "description": "We performed DNaseI cleavage assay as described in our previous study. Briefly, 100 ng of plasmid DNA (pUC18) was incubated with 100 µM concentration of doxorubicin (a known DNA intercalator), DAPI (DNA minor groove binder), methyl green (DNA major groove binder) and compound 19 (at 250 and 500 µM concentrations) for 30 min at 37 °C in an incubation buffer similar to ligation buffer. After incubation, the DNA was cleaved by adding 0.0025U of DNaseI in each reaction mixture for 5 min at 37 °C and the reactions were stopped by adding stop buffer which contained 7 M Urea, 20 mM Tris-Cl (pH. 7.5), 50 mM EDTA, 20% glycerol and Bromophenol blue. The samples were resolved on 1% agarose gel and visualized under UV transilluminator and image taken with GE Image quant LAS4010."}, "[10]": {"target": "PARP1 (Homo sapiens, UniProt P09874)", "sequence (P09874 whole entry)": "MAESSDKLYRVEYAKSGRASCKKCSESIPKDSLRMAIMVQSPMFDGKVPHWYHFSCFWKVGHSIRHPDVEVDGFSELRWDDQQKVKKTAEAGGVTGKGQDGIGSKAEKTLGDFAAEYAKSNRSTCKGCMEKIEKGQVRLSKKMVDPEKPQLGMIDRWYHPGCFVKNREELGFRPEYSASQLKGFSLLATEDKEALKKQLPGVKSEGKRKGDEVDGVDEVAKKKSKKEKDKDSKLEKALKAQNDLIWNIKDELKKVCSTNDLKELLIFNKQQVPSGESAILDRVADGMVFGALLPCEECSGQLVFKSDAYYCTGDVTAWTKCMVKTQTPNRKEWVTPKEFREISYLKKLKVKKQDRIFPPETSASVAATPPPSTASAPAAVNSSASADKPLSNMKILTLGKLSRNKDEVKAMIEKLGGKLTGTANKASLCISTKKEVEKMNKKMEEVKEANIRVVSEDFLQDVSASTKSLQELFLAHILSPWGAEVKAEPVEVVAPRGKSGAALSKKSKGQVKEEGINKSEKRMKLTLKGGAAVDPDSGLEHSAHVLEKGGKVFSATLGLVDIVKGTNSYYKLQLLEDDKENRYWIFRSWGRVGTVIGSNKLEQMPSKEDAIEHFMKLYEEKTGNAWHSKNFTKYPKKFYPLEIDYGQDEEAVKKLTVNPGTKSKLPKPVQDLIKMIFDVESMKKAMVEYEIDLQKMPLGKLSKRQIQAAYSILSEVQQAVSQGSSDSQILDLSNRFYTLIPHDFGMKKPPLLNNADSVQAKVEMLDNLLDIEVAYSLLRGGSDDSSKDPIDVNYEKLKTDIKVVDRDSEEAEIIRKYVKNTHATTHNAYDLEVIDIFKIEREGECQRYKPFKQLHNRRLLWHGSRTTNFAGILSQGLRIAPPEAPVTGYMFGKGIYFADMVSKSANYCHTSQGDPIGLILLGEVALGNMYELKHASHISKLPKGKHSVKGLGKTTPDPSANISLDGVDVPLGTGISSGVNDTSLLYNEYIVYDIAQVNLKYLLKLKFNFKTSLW", "test": "PARP1 activity assay (NAD fluorescence)", "settings": "compound 19 at 5, 10 and 20 µM", "quoted_text": "Human PARP1 full length protein was purified as described previously ^4,5.\nSamples were cooled and fluorescence measurement carried out at excitation 360nm and emission range 445nm."}},
  "data": [
    {"smiles": "COc1cc(/C=C/c2cc(=O)oc3c2ccc2ccccc23)cc(OC)c1", "note": "[Compound 19, (E)-4-(3,5-dimethoxystyryl)-2H-benzo[h]chromen-2-one]", "values": [
      {"measurement": "DNA tail length (comet assay)", "setting": "[1]", "value": "significant increase in the tail length of treated cells"},
      {"measurement": "Microsomal metabolic stability", "setting": "[2]; 5 µM, RLM 0.5 mg/ml, NADPH, up to 60 min", "value": "55.5 ± 4.77", "unit": "%"},
      {"measurement": "Stability in control reaction in the absence of cofactor", "setting": "[2]; RLM without NADPH", "value": "stable"},
      {"measurement": "Inhibition of T4 DNA ligase activity", "setting": "[3]", "value": "unaffected"},
      {"measurement": "Antiligase activity, compound versus parent molecules", "setting": "[4]; 20 µM", "value": "significantly better antiligase activity"},
      {"measurement": "Inhibition of hLigI ligation activity", "setting": "[4]; 5, 10 and 20 µM", "value": "specifically inhibits the activity of hLigI"},
      {"measurement": "Inhibition of hLigIIIβ ligation activity", "setting": "[5]", "value": "unaffected"},
      {"measurement": "Inhibition of hLigIV/XRCC4 ligation activity", "setting": "[6]", "value": "unaffected"},
      {"measurement": "Flap cleavage activity of lysate of treated cells", "setting": "[7]", "value": "remained unaffected"},
      {"measurement": "DNA ligase activity in cell free extracts of treated cells", "setting": "[8]", "value": "can inhibit DNA ligase activity"},
      {"measurement": "Protection of DNA from cleavage by DNase I (DNA binding)", "setting": "[9]", "value": "no protection from cleavage by DNase I"},
      {"measurement": "Inhibition of PARP1 activity", "setting": "[10]", "value": "not able to inhibit"}
    ]}
  ]
}
